Experimental data: patent US4558054A, “Spasmolytic endo-8,8-dialkyl-8-azoniabicyclo (3.2.1) octane-6,7-exo-epoxy-3-alkyl-carboxylate salts” (priority 1983, dated 1985)
Where two headings read alike, the source gives them in different places.

Legend:
[1] = Overall pharmacological screening (spasmolytic activity and side effects); details: intestinal transit and mydriatic effect in the mouse
Protocol: The study was conducted using the following in vitro and in vivo tests, each time in comparison with Buscopan, atropine methyl bromide and syntropium bromide: […]

[2] = biological target: T1, isolated guinea pig ileum (antagonist acetyl choline) (Cavia porcellus, UniProt H0W1Z3); assay: Isolated guinea pig ileum, antimuscarinic activity vs acetyl choline, pA2; format: cell-based; details: for antimuscarinic spasmolytic activity in words, compared with Buscopan / spasmolytic activity relative to Buscopan: vs Buscopan; for antimuscarinic activity in words, compared with atropine: vs atropine
T1 construct: antimuscarinic activity using the isolated guinea pig ileum; from tissue; host or cells: isolated guinea pig ileum
Protocol: (§1) 2. Isolated guinea pig ileum (antagonist acetyl choline)
(§2) 2. Isolated guinea pig ileum
(§3) All the compounds were also tested for antimuscarinic activity using the isolated guinea pig ileum, with acetyl choline as antagonist.
(§4) The potency of action was evaluated by calculating the pA2 values, as in the case of the direct myolytic activity evaluated on the isolated rat ileum.
(§5) Antimuscarinic activity evaluated on the isolated guinea pig ileum
(§6) with acetyl choline as antagonist, expressed as pA2 value.

[3] = tested on: T2, isolated guinea pig ileum (antagonist acetyl choline) (Cavia porcellus); assay: as above; format: cell-based; details: with respect to Buscopan (=1)
T2 construct: antimuscarinic activity using the isolated guinea pig ileum; from tissue; host or cells: isolated guinea pig ileum
Protocol: as §1, §2, §3, §4, §5, §6

[4] = tested on: isolated rat ileum (antagonist barium chloride); assay: Isolated rat ileum, spasmolytic (direct myolytic) activity vs barium chloride, pA2; format: cell-based; parameters: key to pA2, spasmolytic effect: pA2 = −log molar antagonist conc. halving BaCl2-induced contraction; details: for direct myolytic activity relative to Buscopan: Buscopan activity = 1; for spasmolytic activity in words, rat ileum: compared with Buscopan; for pA2, spasmolytic effect: isolated rat ileum, barium chloride, 6 experiments, confidence limits P = 0.05; for Activity ratio: with respect to Buscopan (=1), antilogarithm of pA2 difference
Text: 1. Isolated rat ileum (antagonist barium chloride)
The spasmolytic activity of the compounds reported in Table 1 were studied firstly in a comparison with Buscopan (scopolamine butyl bromide), using the isolated rat ileum, by the classical Magnus method [Magnus and coll., Pflugers Gas. Physiol., 102, 123 (1904)], of which the smooth muscle was subjected to direct stimulation by barium chloride. The evaluation of this activity was made by the method involving the pA2 determination [Schild H. G., Brit. J. Pharmacol., 2, 189, (1947)]. The pA2 value is the negative logarithm of the molar concentration of the antagonist able to reduce the contraction induced by the antagonist (barium chloride) by 50%.
Spasmolytic effect evaluated on the isolated rat ileum with barium
chloride as antagonist, and expressed as the pA2 value.

[5] = Intestinal transit in the mouse (inhibition of progression of opaque meal); details: in vivo, ip
Protocol: (§7) 3. Intestinal transit in the mouse
(§8) 3. intestinal transit in the mouse
(§9) An evaluation was made on the capacity of the studied compounds to inhibit the progression of an opaque meal 15 minutes after their intraperitoneal administration into the mouse. This test is indicative of undesirable side effects.
(§10) The method followed was the classical method of Janssen and Jageneau [Janssen P. A., Jageneau A. H., J. Pharm. Pharmacol. 9, 381 (1957)], by which the doses which inhibit the progression of the opaque meal through the small intestine by 50% (ED50) relative to the controls were calculated.
(§11) Activity affecting intestinal transit in the mouse after intra-
(§12) peritonal administration 15 minutes before taking the opaque

[6] = tested on: intestinal transit in the mouse; assay: as above; details: in vivo, ip
Protocol: as §7, §8, §9, §10, §11, §12

[7] = Acute toxicity in the mouse; format: in vivo; details: mouse, in vivo, ip; male mice (Swiss stock); Litchfield and Wilcoxon
Protocol: (§13) 5. Acute toxicity in the mouse
(§14) The acute toxicity of the compounds according to the invention was evaluated in comparison with that of Buscopan, atropine methyl bromide and syntropium bromide, after intraperitoneal administration in male mice (Swiss stock).
(§15) The LD50, the values of which together with the relative confidence limits (P=0.05) are given in Table 6, was calculated by the Litchfield and Wilcoxon method [Litchfield J. T., Wilcoxon F. A., J. Pharmac. Exp. Theor., 96, 99 (1949)].
(§16) Acute toxicity in the mouse after intraperitoneal administration

mouse = assay: Acute toxicity in the mouse; format: in vivo; details: compared with reference standards / Buscopan
Protocol: as §13, §14, §15, §16

[8] = tested on: mouse pupil (basal pupillary diameter); assay: Mydriatic activity in the mouse; format: in vivo; details: for mydriatic activity lower than atropine methyl bromide: vs atropine methyl bromide
Protocol: 4. Mydriatic activity in the mouse
The dose able to increase the basal pupillary diameter by 150% (ED150)15 minutes, 30 minutes, 60 minutes and 120 minutes after intraperitoneal administration of the compounds into the mouse was calculated.
Mydriatic activity evaluated in the mouse 15 minutes, 30 minutes, 60
minutes after intraperitoneal administration

[9] = mouse, i.p., 150% increase of basal pupillary diameter
[10] = isolated guinea pig ileum, acetyl choline, 6 experiments, confidence limits P = 0.05, read-out: pA2, antimuscarinic activity (converted)

T1 sequence (H0W1Z3 1-590): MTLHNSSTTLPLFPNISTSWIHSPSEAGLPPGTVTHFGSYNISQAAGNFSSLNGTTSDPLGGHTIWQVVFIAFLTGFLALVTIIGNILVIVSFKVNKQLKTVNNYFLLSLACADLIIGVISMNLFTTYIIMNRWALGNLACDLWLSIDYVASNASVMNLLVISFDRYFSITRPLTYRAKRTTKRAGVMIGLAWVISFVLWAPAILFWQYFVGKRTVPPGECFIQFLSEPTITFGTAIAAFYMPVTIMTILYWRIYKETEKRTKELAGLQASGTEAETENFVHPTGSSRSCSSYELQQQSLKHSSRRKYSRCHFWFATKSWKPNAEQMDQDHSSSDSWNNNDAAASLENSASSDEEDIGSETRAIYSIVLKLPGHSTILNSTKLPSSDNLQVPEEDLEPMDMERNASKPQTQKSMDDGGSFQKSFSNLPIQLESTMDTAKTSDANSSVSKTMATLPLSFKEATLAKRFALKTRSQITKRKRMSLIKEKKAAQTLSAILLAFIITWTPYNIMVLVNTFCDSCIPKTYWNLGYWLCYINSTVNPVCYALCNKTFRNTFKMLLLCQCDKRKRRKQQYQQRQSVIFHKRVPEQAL
T2 sequence (H0W1Z3 1-590): as above

SMILES | Kb [2] | Activity ratio [3] | spasmolytic activity in words, rat ileum [4] | pA2, spasmolytic effect [4] | Activity ratio [4] | ED50 [5] | LD50 [7] | acute toxicity in words (mouse) | ED150 after 15 min [8, 9] | ED150 after 30 min [8, 9] | ED150 after 60 min [8, 9] | other results
CCCC(CCC)C(=O)O[C@@H]1C[C@@H]2[C@H]3O[C@H]3[C@H](C1)[N+]2(C)C [No. 2, endo-8,8-dimethyl-8-azoniabicyclo[3.2.1]octane-6,7-exo-epoxy-3-(2-propyl)pentanoate bromide] | 11 nM | 4.27 | decidedly greater than those of Buscopan | 8.06 | 16.6 | 79 mg/kg | 93.5 mg/kg | decidedly lower toxicity | 0.21 mg/kg/i.p. | 0.42 mg/kg/i.p. | 1.46 mg/kg/i.p. | side effects in words [1]: lesser level of side effects; antimuscarinic spasmolytic activity in words, compared with Buscopan [2]: decidedly greater than those of Buscopan; spasmolytic activity relative to Buscopan [2]: 4.27 times; antimuscarinic activity in words, compared with atropine [2]: approaches that of atropine itself; antimuscarinic activity in words, compared with syntropium bromide ([2]; vs syntropium bromide): much higher than; direct myolytic activity relative to Buscopan [4]: 16.6 times; reduction of intestinal transit in words [6]: reduce intestinal transit to a decidedly lesser extent; mydriatic activity lower than atropine methyl bromide [8]: 10 times less
C[N+]1(C)[C@@H]2CC[C@H]1C[C@@H](OC(=O)C(CO)c1ccccc1)C2 (stereo partly drawn) [Atropine MeBr, atropine methyl bromide] |  |  |  |  |  | 52.1 mg/kg | 75 mg/kg |  | 0.030 mg/kg/i.p. | 0.030 mg/kg/i.p. | 0.052 mg/kg/i.p. | 
CCCC(CCC)C(=O)O[C@@H]1C[C@@H]2[C@H]3O[C@H]3[C@H](C1)[N@+]2(C)C(C)C [No. 8, endo-8-methyl-8-syn-(1-methyl)ethyl-8-azoniabicyclo[3.2.1]octane-6,7-exo-epoxy-3-(2-propyl)pentanoate bromide] | 302 nM | 0.15 | good spasmolytic activity | 5.72 | 0.08 | ~69 mg/kg | 78 mg/kg |  |  |  |  | 
CCCC(CCC)C(=O)O[C@@H]1C[C@@H]2[C@H]3O[C@H]3[C@H](C1)[N@+]2(C)CC [No. 5, endo-8-methyl-8-syn-ethyl-8-azoniabicyclo[3.2.1]octane-6,7-exo-epoxy-3-(2-propyl)pentanoate bromide] | 19.1 nM | 2.25 | decidedly greater than those of Buscopan | 7.73 | 7.8 | 73.2 mg/kg | 74 mg/kg | lower toxicity | 2.17 mg/kg/i.p. | 6.16 mg/kg/i.p. |  | side effects in words [1]: lesser level of side effects; antimuscarinic spasmolytic activity in words, compared with Buscopan [2]: decidedly greater than those of Buscopan; spasmolytic activity relative to Buscopan [2]: 2.45 times; antimuscarinic activity in words, compared with atropine [2]: approaches that of atropine itself; direct myolytic activity relative to Buscopan [4]: 7.8 times; reduction of intestinal transit in words [6]: reduce intestinal transit to a decidedly lesser extent; mydriatic activity lower than atropine methyl bromide [8]: > 100 times less
CCCC(CCC)C(=O)OC1CC2CCC(C1)[N+]2(C)C(C)C (stereo not drawn) [Syntropium Br, syntropium bromide, reference compound] |  | 2.57 |  |  |  |  | 65 mg/kg |  |  |  |  | Kb [2, 10]: 18.2 nM; ED50 ([5]; 15 minutes before opaque meal, indicative of side effects, read-out: ED50, inhibition of progression of opaque meal by 50%): 29.8 mg/kg
CCCC[N@+]1(C)[C@@H]2C[C@@H](OC(=O)C(CCC)CCC)C[C@H]1[C@@H]1O[C@@H]12 [No. 10, endo-8-methyl-8-syn-butyl-8-azoniabicyclo[3.2.1]octane-6,7-exo-epoxy-3-(2-propyl)pentanoate bromide] |  |  |  |  |  | ~85 mg/kg | 105 mg/kg | decidedly lower toxicity |  |  |  | 
CCCC[N+]1(C)[C@@H]2C[C@@H](OC(=O)[C@H](CO)c3ccccc3)C[C@H]1[C@@H]1O[C@@H]12 (stereo partly drawn) [Buscopan, scopolamine butyl bromide] |  |  |  | 6.84 |  | 51.7 mg/kg | 65 mg/kg |  | 3.24 mg/kg/i.p. | 3.29 mg/kg/i.p. | 3.66 mg/kg/i.p. | Kb [2, 10]: 46.8 nM; mydriatic activity over time, in words ([8]; mouse, i.p.): still possesses activity 120 minutes after its administration; ED150 after 120 min ([8]; mouse, i.p., 150% increase of basal pupillary diameter, 120 min): 5.32 mg/kg/i.p.
CCCC(CCC)C(=O)O[C@@H]1C[C@@H]2[C@H]3O[C@H]3[C@H](C1)[N@@+]2(C)CC [No. 12, endo-8-methyl-8-anti-ethyl-8-azoniabicyclo[3.2.1]octane-6,7-exo-epoxy-3-(2-propyl)pentanoate bromide] | 93.3 nM | 0.50 | activity similar to that of Buscopan | 6.66 | 0.7 | 42.2 mg/kg | 72 mg/kg |  |  |  |  | activity lower than Buscopan ([4]; vs Buscopan): 1.5 times lower
